Results published in US20140005103A1, “SULFONAMIDE DERIVATIVES AND METHODS OF USE THEREOF FOR IMPROVING THE PHARMACOKINETICS OF A DRUG” (Merck, Sharp & Dohme Corp., priority 2012, published 2014).
pIC50: −log10 of the molar value.

What was measured:
human CYP11B1 = target: T1, human CYP11B1 (Homo sapiens, UniProt P15538); assay: IC50 vs CYP11B1 by cortisol synthesis in V79 cells; format: cell-based; conditions: V79 cells expressing human CYP11B1, 1500 nM RSS, cortisol HTRF; test concentrations 0.5-10000 nM
T1 construct: expressed in transfected cells
T1 sequence (P15538 25-503): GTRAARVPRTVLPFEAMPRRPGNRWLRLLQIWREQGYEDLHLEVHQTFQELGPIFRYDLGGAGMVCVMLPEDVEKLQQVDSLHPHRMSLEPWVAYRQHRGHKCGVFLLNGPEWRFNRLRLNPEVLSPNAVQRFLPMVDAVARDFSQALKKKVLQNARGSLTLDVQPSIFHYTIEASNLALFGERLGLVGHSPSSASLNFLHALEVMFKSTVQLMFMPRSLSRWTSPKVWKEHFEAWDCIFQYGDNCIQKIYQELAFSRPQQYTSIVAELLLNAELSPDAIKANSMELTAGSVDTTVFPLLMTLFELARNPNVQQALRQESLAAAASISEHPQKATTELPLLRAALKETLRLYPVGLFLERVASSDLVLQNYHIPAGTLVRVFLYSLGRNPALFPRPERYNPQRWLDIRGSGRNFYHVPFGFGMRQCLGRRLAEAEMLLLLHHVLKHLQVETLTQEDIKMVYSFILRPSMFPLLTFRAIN
Method: Determination of IC50 vs CYP11B1/CYP11B2 by Measurement of Cortisol/Aldosterone Synthesis
This assay was performed in a standard 384-well plate design using cultured V79 cells stably expressing human CYP11B1 or human CYP11B2. Test compounds at 10 concentrations (for example, 10000, 3333.3, 1111.1, 370.4, 123.5, 41.2, 13.7, 4.6, 1.5 and 0.5 nM) were added in 384-well plate after the cell-seeding procedure. The incubation substrate contains 1500 nM RSS for CYP11B1 assay/750 nM DOC for CYP11B2 assay. The
Cortisol/Aldosterone production of cell culture supernatant was determined by Cortisol/Aldosterone HTRF kit after for about 15 hours incubation at RT (protect from light). IC50 values were calculated from the percent inhibition observed for each test compound at 10 concentrations.
The assay plate was read using Envision (Perkin Elmer, Waltham, Mass.) at 665 nm and 590 nm (using Filter Barcode of 217#, 205#; Mirror Barcode of 446#).
Data are analyzed using Assay Data Analyzer. All ratio data (665 nm/590 nm) are back calculated according to the standard curve, resulting in Cortisol/Aldosterone concentrations. IC50 values are reported as the Inflection Point (IP) of a four parameter fit of the titration data.
(§1) The following equation was used to calculate the % inhibition:
% Activity=100×{1−(Sample_back calculated Cortisol/Aldosterone concentration−LC_back calculated Cortisol/Aldosterone concentration)/(HC_back calculated Cortisol/Aldosterone concentration−LC_back calculated Cortisol/Aldosterone concentration)}

CYP2D6 = target: T2, CYP2D6 (Homo sapiens, UniProt P10635); assay: Cocktail CYP assay, dextromethorphan O-demethylation; format: in vitro ADME; conditions: human liver microsomes, 5 μM dextromethorphan; test concentrations up to 10 μM
T2 construct: 0.1 mg/mL protein human liver microsomes (BD Gentest); tissue BD Gentest; host or cells: human liver microsomes
T2 sequence (P10635 whole entry): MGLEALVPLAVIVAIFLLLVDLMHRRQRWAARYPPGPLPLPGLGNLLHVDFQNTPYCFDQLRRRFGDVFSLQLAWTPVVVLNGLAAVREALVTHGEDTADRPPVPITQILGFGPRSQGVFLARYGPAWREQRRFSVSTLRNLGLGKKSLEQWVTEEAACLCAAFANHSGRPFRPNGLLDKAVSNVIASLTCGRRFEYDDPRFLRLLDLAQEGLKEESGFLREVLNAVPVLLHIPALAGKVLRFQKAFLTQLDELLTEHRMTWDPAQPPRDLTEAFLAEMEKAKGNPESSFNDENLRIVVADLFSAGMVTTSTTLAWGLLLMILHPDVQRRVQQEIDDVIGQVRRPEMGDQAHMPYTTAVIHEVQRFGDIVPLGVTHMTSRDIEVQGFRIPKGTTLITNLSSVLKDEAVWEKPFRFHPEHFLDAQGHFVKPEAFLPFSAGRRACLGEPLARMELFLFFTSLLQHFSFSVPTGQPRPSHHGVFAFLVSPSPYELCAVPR
Method: Determination of IC50 in a Cocktail Assay for CYPs 1A2, 2C9, 2C19, 2D6 and 3A4
This assay was performed in a standard 96-well plate design. IC50 values were calculated from the percent inhibition observed for each test compound at 6 concentrations (for example, 0.0032, 0.016, 0.08, 0.4, 2 and 10 μM). The incubation substrate mix contains 10 μM phenacetin (1A2), 5 μM diclofenac (2C9), 30 μM mephenyloin (2C19), 5 μM dextromethorphan (2D6) and 2 μM midazolam (3A4), 0.1 mg/mL protein human liver microsomes (BD Gentest), 1 mM NAPDH, 3.3 mM MgCl2 and 100 mM potassium phosphate buffer (pH 7.4). The production of the metabolite of each probe substrate was determined after incubation for 10 min at 37° C. Quantitation of the metabolite peak area ratio against an internal standard (tolbutamide) was determined by LC/MS/MS analysis following acetonitrile treatment of the incubations.
(§2) Samples were analyzed in the MRM mode with a SCIEX API-4000 mass spectrometer (Applied Biosystems, Foster City, Calif.), with a Shimadzu LC-20 AD pump (Shimadzu corporation, Kyoto, JP) and a CTC PAL autosampler (Agilent Technologies, Switzerland). A Phenomenex, Luna, 5 nm, 100 A, 2.00×30 mm HPLC column was used for the separation. The mobile phases were: (A) 0.1% formic acid in water and (B) 0.1% formic acid in acetonitrile. The binary gradient was as follows.
(§3) The peak area ratio of the analyte to the internal standard was used to quantify the metabolite. The values of peak area ratios in the presence of test compound were compared to those of maximum or minimum controls and were expressed as % inhibition by interpolating between the maximum and minimum peak area ratios. Incubations with no inhibitor were defined as the maxima.
as §1
(§4) [1−[(X−Low control)/(High control−Low control)]]*100
(§5) For the IC50 calculation, SigmaPlot was used to plot the mean % inhibition versus the test compound concentrations and for non-linear regression analysis of the data. Depending on the range of data points defining the inhibition curve, the data may have been fit to the 4-parameter logistic equation.

CYP3A4 = CYP3A4 (Homo sapiens, UniProt P08684); assay: IC50 vs CYP3A by inhibition of lopinavir metabolism in human liver microsomes; format: biochemical; conditions: pH 7.4, human liver microsomes, 1.5 μM lopinavir, 8 min at 37° C., test concentrations 0.098-100 nM, read-out: 3A4(LPV)
Sequence of CYP3A4 (P08684 2-503): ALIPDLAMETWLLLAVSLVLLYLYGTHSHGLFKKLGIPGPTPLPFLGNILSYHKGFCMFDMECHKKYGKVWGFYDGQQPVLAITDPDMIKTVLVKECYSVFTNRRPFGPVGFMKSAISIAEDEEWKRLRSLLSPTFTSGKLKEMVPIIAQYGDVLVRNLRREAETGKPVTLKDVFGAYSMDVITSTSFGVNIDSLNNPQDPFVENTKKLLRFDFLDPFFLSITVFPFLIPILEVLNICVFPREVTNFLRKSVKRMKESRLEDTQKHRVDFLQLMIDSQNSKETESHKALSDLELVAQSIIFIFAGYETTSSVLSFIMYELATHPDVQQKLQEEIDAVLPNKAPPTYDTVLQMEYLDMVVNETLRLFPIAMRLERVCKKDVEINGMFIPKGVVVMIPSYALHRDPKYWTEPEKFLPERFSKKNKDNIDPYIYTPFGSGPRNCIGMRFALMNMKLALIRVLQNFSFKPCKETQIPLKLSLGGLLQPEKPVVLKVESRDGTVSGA
Method: Determination of IC50 vs CYP3A by Measurement of Inhibition of Lopinavir Metabolism
This assay was performed in a standard 96-well plate design. IC50 values were calculated from the percent inhibition observed for each test compound at 6 concentrations (for example, 0.098, 0.391, 1.56, 6.25, 25 and 100 nM). The incubation substrate mix contains 1.5 μM lopinavir, 0.01 mg/mL protein human liver microsomes (BD Gentest), 1 mM NAPDH, 3.3 mM MgCl2 and 100 mM potassium phosphate buffer (pH 7.4). The production of the sum of three hydroxylated metabolites (M2: 6-hydroxy lopinavir, M3: 4-hydroxy lopinavir, M4: 4-hydroxy lopinavir (epimer of M3), Kumar et al., 1999) was determined after incubation for 8 min at 37° C. Quantitation of the metabolite peak area ratio against an internal standard (tolbutamide) was determined by LC/MS/MS analysis following acetonitrile treatment of the incubations.
as §2, with “μm,” for “nm,”
as §3, with “maxima and with 5 μM ketoconazole were defined as the minima” for “maxima.”
as §1, §4, §5

| Compound | pIC50 (human CYP11B1) | pIC50 (CYP2D6) | IC50 at 8 min (CYP3A4) [µM] |
| --- | --- | --- | --- |
| C[C@H](c1ccc(F)cc1)n1cncc1C1C(=O)OCC2CN(S(=O)(=O)c3cnc(Nc4ccc(C(F)(F)F)cn4)s3)CCN21 (stereo partly drawn) [Compound 39] | 5.61 | 5.66 | 0.008 |
| Cc1ccc(C2(n3cncc3CN3CCN(S(=O)(=O)c4cnc(N5CCN(C)CC5)s4)CC3)CC2)nc1 [Compound 31] | < 5.00 | < 5.00 | 0.0044 |
| CN1CCN(c2ncc(S(=O)(=O)N3CCN(Cc4cncn4CCOc4ccc(F)cn4)CC3)s2)CC1 [Compound 33] | 5.32 | 5.32 | 0.0023 |
| C[C@H](c1ccc(F)cc1)n1cncc1CN1CCN(S(=O)(=O)c2cnc(N3CC[C@@H](N4CCOCC4)[C@H](F)C3)s2)CC1 [Compound 20] | 5.99 | < 5.00 | 0.0041 |
| C[C@H](c1ccc(F)cc1)n1cncc1CN1CCN(S(=O)(=O)c2cnc(N3CCN(C4CCN(C)CC4)CC3)s2)CC1 [Compound 9] | 5.69 | < 5.00 | 0.0028 |
| C[C@H](c1ccc(F)cc1)n1cncc1CN1CCN(S(=O)(=O)c2cnc(N3CC[C@@H](N)[C@H](F)C3)s2)CC1 [Compound 11] | 5.96 | < 5.00 | < 0.00098 |
| C[C@H](c1ccc(C#N)cc1)n1cncc1CN1CCN(S(=O)(=O)c2cnc(Nc3ccc(C(F)(F)F)cn3)s2)CC1 [Compound 4] | 6.65 | 5.28 | < 0.0001 |
| C[C@H](c1ccc(F)cc1)n1cncc1CN1CCN(S(=O)(=O)c2cnc(N3CCC(N)(CO)CC3)s2)CC1 [Compound 25] | 5.16 | 5.08 | 0.0019 |
| C[C@H](c1ccc(F)cc1)n1cncc1CN1CCN(S(=O)(=O)c2cncc(N3CCNCC3)c2)CC1 [Compound 29] | 5.84 | < 5.00 | 0.0029 |
| CN1CCN(c2ncc(S(=O)(=O)N3CCN(Cc4cncn4CCOc4ccc(Cl)cc4)CC3)s2)CC1 [Compound 32] | 5.80 | 5.89 | 0.0012 |
| C[C@H](c1ccc(F)cc1)n1cncc1CN1CCN(S(=O)(=O)c2cnc(N3CC[C@@H]4NCCO[C@H]4C3)s2)CC1 [Compound 15] | 5.77 | 5.45 | 0.0012 |
| C[C@H](c1ccc(F)cc1)n1cncc1C1COCC2CN(S(=O)(=O)c3cnc(Nc4ccccn4)s3)CCN21 (stereo partly drawn) [Compound 40] | 5.94 | 5.54 | 0.0008 |
| C[C@H](c1ccc(F)cc1)n1cncc1CN1CCN(S(=O)(=O)c2cnc(N3CCNCC3)s2)CC1 [Compound 1] | 5.75 | 5.56 | 0.0014 |
| C[C@H](c1ccc(F)cc1)n1cncc1CN1CCN(S(=O)(=O)c2cnc(N3CCNCC3)cn2)CC1 [Compound 30] | 5.35 | 5.31 | 0.0036 |

Next, values leading:

| pIC50 (human CYP11B1) | pIC50 (CYP2D6) | IC50 at 8 min (CYP3A4) [µM] | Compound |
| --- | --- | --- | --- |
| 6.67 | 5.10 | 0.001 | C[C@H](c1ccc(F)cc1)n1cncc1CN1CCN(S(=O)(=O)c2cnc(N3CCN(C)CC3)s2)CC1 [Compound 2] |
| 5.52 | < 5.00 | 0.0015 | C[C@H](c1ccc(F)cc1)n1cncc1CN1CCN(S(=O)(=O)c2cnc(N3CCN4C(=O)OC[C@H]4C3)s2)CC1 [Compound 26] |
| 5.73 | 5.15 | 0.0017 | C[C@H](c1ccc(F)cc1)n1cncc1CN1CCN(S(=O)(=O)c2cnc(N3CCN4C[C@H](O)CC[C@H]4C3)s2)CC1 [Compound 19] |
| 5.59 | 5.30 | 0.0011 | C[C@H](c1ccc(F)cc1)n1cncc1CN1CCN(S(=O)(=O)c2cnc(N3CCN4C[C@H](O)C[C@H]4C3=O)s2)CC1 [Compound 18] |
| 5.91 | 5.33 | 0.0016 | CC1CN(c2ncc(S(=O)(=O)N3CCN(Cc4cncn4[C@H](C)c4ccc(F)cc4)CC3)s2)C[C@@H]2C[C@@H](O)CN12 (stereo partly drawn) [Compound 23] |
| < 5.00 | < 5.00 | 0.0052 | C[C@H](c1ccc(F)cc1)n1cncc1CN1CCN(S(=O)(=O)c2cnc(N3CC(=O)N4C[C@H](O)C[C@H]4C3)s2)CC1 [Compound 16] |
| 5.42 | < 5.00 | 0.0041 | CC(c1cncn1[C@H](C)c1ccc(F)cc1)N1CCN(S(=O)(=O)c2cnc(N3CCN4C[C@H](O)C[C@H]4C3)s2)CC1 (stereo partly drawn) [Compound 37] |
| 5.37 | 5.49 | 0.0019 | C[C@H](c1ccc(F)cc1)n1cncc1CN1CCN(S(=O)(=O)c2cnc(N3CCN4C[C@H](O)CC4(C)C3)s2)CC1 (stereo partly drawn) [Compound 24] |
| 5.80 | 5.41 | 0.0026 | C[C@H](c1ccc(F)cc1)n1cncc1CN1CCN(S(=O)(=O)c2cnc(N3CCN4CCC(O)[C@H]4C3)s2)CC1 (stereo partly drawn) [Compound 27] |
| 5.41 | 5.21 | 0.0019 | C[C@H](c1ccc(F)cc1)n1cncc1CN1CCN(S(=O)(=O)c2cnc(N3C[C@@H]4C[C@@H](O)CN4C[C@@H]3C)s2)CC1 [Compound 21] |
| 5.11 | < 5.00 | 0.032 | C[C@H](c1ccc(F)cc1)n1cnnc1CN1CCN(S(=O)(=O)c2cnc(N3CCN4C[C@H](O)C[C@H]4C3)s2)CC1 [Compound 42] |
